Test results taken from patent USRE35801E, “Prophylactic and therapeutic composition for circulatory disorders and method of treatment” (priority 1985, dated 1998).
Where “and” joins values, the source holds several entries; their conditions need not be identical. Identical values can stand only once.

Tests used:
[1] = National Cancer Institute Report, 1978; cited from earlier work
rat = rat oral administration; cited from earlier work
[2] = test system: cerebral ischemia recirculation model; experiment: Protective action in cerebral ischemia recirculation model; type: in vivo, Wistar-strain male rat; set-up: key to Judgement of action: The case when restoration of electroencephalogram is judged as +; case when not recognized as -; settings: 3 mg/kg
mouse = mouse intraperitoneal administration; cited from earlier work
[3] = test system: lipid peroxidation (brain homogenate); experiment: Inhibitory action of lipid peroxidation in brain homogenate (TBA value); type: biochemical; settings: inhibition of lipid peroxidation, rat brain homogenate, 37° C., 30 minutes
Protocol: (1) Inhibitory action of lipid peroxidation (a) Preparation of brain homogenate By use of Wister-strain male rat, brain homogenate was prepared following the procedure as described below. […] Next, a brain perfusion was conducted through the tube with ice-cooled 50 mM phosphate-buffered physiological saline (pH 7.4) hereinafter referred to as "PBS"), and the whole brain was extirpated. After removal of cerebellum, the wet weight of cerebrum was measured and, with addition of 9-fold amount of PBS, it was broken by a Teflon homogenizer in ice-water to be homogenized. After the brain homogenate was subjected to centrifugation at 4° C. at 2200 rpm for 10 minutes, 0.3 ml of the supernatant was apportioned into a light-shielding test tube equipped with a ground stopper, to provide a brain homogenate for evaluation of medicine. (b) Evaluation of test medicine To the brain homogenate produced in (a), 0.6 ml of PBS and 10 μl of ethanolic solution of a test medicine were added (to a final concentration of 500 μM or a concentration at a common ratio of 3 between 0.3 and 100 μm), and the mixture was heated in a warm bath at 37° C. for 30 minutes. […] Also, the same operation was performed by addition of 10 μl of ethanol (blank) in place of 10 μl ethanolic solution of the test medicine for measurement of blank. […] After shaking for about 30 seconds, the mixture was subjected to centrifugation at 3000 rpm for 10 minutes, and the supernatant was provided as a sample for measurement of peroxidized lipid.

[4] = test system: cerebral ischemia recirculation model; experiment: Protective action in cerebral ischemia recirculation model; type: in vivo, Wistar-strain male rat; set-up: key to Presence of electroencephalogram restoration / Judgement of action: The case when restoration of electroencephalogram is judged as +; case when not recognized as -
Protocol: (3) Protective action in cerebral ischemia recirculation model
A Wistar-strain male rat weighing about 400 g was administered intramascularly with 0.6 mg of di-tubocurarine to be immobilized and, after a trachea cannulation, the head portion was fixed under artificial respiration on a stereotaxic device. The head skin was cut open, cranial bone was bored, and then bipolar electrode for lead-out of electroencephalogram were placed on the surface of the subdural left frontal cerebral cortex. After the electrode was fixed with the cranial bone by use of dental cement, the animal was held on its back. Next, a cannula for measurement of systemic pressure was placed within the left femoral artery, and a cannula for additional administration of d-tubocurarine within the left femoral vein, respectively. The heart rate was measured and recorded by driving a heart rate meter with the artery wave.
After blood pressure, heart rate and various parameters of electroencephalogram were stabilized, 10 mg/kg of the active ingredient of the present invention prepared in a suspension so as to give 1 ml/kg in 1% tragacanth gum solution was administered directly into duodenum […]. To the control group, only the 1% tragacanth gum solution of the same volume was administered similarly.
Ten to twenty minutes after administration of the medicine, while monitoring the electroencephalogram, blood pressure and heart rate on a multi-purpose monitoring recording device (RM-85 model, produced by Nippon Koden K.K.), the following operations were performed according to the methods shown below for cerebral ischemia loading.
First, ribs were set free at the left costicartilage end to open the chest. Next, cerebral blood flow was blocked for ten minutes by obstructing the left common carotid artery and the left subclavian artery exposed at the aorta originating portion at the same time, and then the brachiocephalic trunk by use of artery clips 30 minutes after administration of the medicine.
Recirculation of cerebral blood flow was effected by releasing at the same time the two artery clips mounted on the respective sites as mentioned above.
The protective action of the medicine for the disorder after recirculation of cerebral ischemia was examined by the presence of restoration of electroencephalogram, and survival time of animal after the recirculation.
During the experiment, the rectal temperature of the animal was maintained at 37° to 38° C. by use of a warming mat. Also, the rectal temperature was continuously drawn on the recorder together with electroencephalogram, femoral artery pressure and heart rate.

## CC1=NN(c2ccccc2)C(=O)C1 [Compound 1, 3-methyl-1-phenyl-2-pyrazolin-5-one]
[1]
  carcinogenicity: free from carcinogenicity
rat
  LD50: 3500 mg/kg
[2]; average
  Survival time after recirculation, average: 106 min
[2]; individual animal
  Judgement of action: + and -
  Survival time after recirculation: 85 min and 126 min
mouse
  LD50: 2012 mg/kg
[3]
  IC50: 18.2 µM
[4]; 10 mg/kg into duodenum, 10 min cerebral ischemia (Table 3)
  Presence of electroencephalogram restoration: +
[4]; 10 mg/kg, average
  Survival time after recirculation, average: 117 min
[4]; 10 mg/kg, individual animal
  Judgement of action: +
  Presence of electroencephalogram restoration: +
  Survival time after recirculation: 46 min and 140 min and 164 min
[4]; active ingredient group
  electroencephalogram restoration during recirculation period (in words): electroencephalogram appeared by restoration during recirculation period depending on the dose of 3 to 10 mg/kg
  survival time of animals after recirculation (in words): clearly elongated
